# Data published in patent US9533987B2, “Heterocyclic derivates” (KALVISTA PHARMACEUTICALS LIMITED, priority 2013, dated 2017).
# Legend:
# diabetic rats = conditions: cited from earlier work
# [1] = in vivo; cited from earlier work
# Human KLK1 = Human KLK1 (Homo sapiens (Human), UniProt P06870); experiment: Determination of the IC50 for KLK1 (fluorogenic substrate H-DVal-Leu-Arg-AFC); assay type: biochemical; conditions: 37° C.
# Procedure: Determination of the IC50 for KLK1
# (§1) Human KLK1 (Callbiochem) was incubated at 37° C. with the fluorogenic substrate H-DVal-Leu-Arg-AFC and various concentrations of the test compound. Residual enzyme activity (initial rate of reaction) was determined by measuring the change in […] at 410 nm and the IC50 value for the test compound was determined.
# plasmin = plasmin (Homo sapiens (Human), UniProt P00747); experiment: Determination of enzyme selectivity, plasmin; assay type: biochemical; conditions: substrate at Km concentration
# Sequence of plasmin (P00747 581-810): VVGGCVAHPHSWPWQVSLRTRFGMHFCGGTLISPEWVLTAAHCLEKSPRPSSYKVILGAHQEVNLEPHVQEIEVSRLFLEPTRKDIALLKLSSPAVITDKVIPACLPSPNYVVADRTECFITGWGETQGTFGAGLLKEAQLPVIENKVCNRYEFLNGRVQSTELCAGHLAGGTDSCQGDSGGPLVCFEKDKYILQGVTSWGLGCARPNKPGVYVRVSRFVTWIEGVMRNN
# Sequence of plasmin (P00747 97-580 partner): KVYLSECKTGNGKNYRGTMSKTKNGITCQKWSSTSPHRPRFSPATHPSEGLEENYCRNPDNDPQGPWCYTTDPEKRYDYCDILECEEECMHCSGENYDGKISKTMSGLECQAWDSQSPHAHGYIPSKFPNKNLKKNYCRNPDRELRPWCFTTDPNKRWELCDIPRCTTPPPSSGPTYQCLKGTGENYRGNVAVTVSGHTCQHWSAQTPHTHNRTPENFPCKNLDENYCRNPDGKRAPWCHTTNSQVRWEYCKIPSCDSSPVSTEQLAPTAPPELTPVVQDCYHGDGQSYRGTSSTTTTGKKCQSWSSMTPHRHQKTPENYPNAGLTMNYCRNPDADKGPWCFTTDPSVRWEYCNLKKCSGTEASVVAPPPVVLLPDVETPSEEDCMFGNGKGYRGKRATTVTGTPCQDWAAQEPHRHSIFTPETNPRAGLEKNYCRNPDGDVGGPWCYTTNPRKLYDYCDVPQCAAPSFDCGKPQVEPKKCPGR
# Procedure: (§2) Determination of Enzyme Selectivity
# (§3) Human serine protease enzymes plasmin, thrombin, trypsin, Factor Xa and Factor XIIa were assayed for enzymatic activity using an appropriate fluorogenic substrate. Protease activity was measured by monitoring the accumulation of liberated fluorescence from the substrate over 5 minutes. The linear rate of fluorescence increase per minute was expressed as percentage (%) activity. The Km for the cleavage of each substrate was determined by standard transformation of the Michaelis-Menten equation.
# trypsin = experiment: Determination of enzyme selectivity, trypsin; assay type: biochemical, human; conditions: substrate at Km concentration
# Procedure: as §2, §3
# Factor XIIa = Factor XIIa (Homo sapiens (Human), UniProt P00748); experiment: Determination of enzyme selectivity, Factor XIIa; assay type: biochemical; conditions: substrate at Km concentration
# Sequence of Factor XIIa (P00748 373-615): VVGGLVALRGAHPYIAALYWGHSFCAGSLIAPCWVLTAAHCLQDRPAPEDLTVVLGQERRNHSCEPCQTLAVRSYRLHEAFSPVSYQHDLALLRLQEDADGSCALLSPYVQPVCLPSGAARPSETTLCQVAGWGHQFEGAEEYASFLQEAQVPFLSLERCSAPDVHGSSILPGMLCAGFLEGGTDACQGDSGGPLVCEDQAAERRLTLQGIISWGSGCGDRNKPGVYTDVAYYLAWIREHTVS
# Human plasma kallikrein = Human plasma kallikrein (Homo sapiens (Human), UniProt P03952); experiment: Determination of the IC50 for plasma kallikrein (fluorogenic substrate H-DPro-Phe-Arg-AFC); assay type: biochemical; conditions: 37° C., read-out: IC50 (human PKaI)
# Sequence of Human plasma kallikrein (P03952 391-638): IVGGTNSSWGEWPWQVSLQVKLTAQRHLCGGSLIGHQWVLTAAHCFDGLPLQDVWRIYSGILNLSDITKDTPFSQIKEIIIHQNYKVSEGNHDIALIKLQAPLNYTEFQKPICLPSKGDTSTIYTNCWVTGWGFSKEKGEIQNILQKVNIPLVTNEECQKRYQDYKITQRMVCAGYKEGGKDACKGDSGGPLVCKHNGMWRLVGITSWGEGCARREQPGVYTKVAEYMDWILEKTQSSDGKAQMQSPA
# Sequence of Human plasma kallikrein (P03952 20-390 partner): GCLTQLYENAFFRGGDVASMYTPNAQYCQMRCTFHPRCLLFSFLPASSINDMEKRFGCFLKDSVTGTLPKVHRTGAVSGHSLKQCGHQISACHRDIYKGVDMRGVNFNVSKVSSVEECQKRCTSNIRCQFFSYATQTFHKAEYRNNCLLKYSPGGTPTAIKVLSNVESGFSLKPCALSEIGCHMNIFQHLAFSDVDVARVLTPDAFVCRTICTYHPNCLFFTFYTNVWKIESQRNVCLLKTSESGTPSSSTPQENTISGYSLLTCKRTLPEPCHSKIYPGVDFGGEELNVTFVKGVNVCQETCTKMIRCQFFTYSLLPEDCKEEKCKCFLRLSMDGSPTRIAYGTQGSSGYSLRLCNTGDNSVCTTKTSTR
# Procedure: Determination of the IC50 for Plasma Kallikrein
# as §1, with “plasma kallikrein (Protogen)” for “KLK1 (Callbiochem)”, “H-DPro-Phe-Arg-AFC” for “H-DVal-Leu-Arg-AFC”
# thrombin = thrombin (Homo sapiens (Human), UniProt P00734); experiment: Determination of enzyme selectivity, thrombin; assay type: biochemical; conditions: substrate at Km concentration
# Procedure: as §2, §3
# [2] = Pharmacokinetics following a single oral dose in male Sprague-Dawley rats; assay type: in vivo; conditions: rat, single po dose 10 mg/kg, plasma
# Procedure: Pharmacokinetic studies of the compounds in Table 16 were performed to assess the pharmacokinetics following a single oral dose in male Sprague-Dawley rats. […] Following dosing, blood samples were collected over a period of 24 hours. Sample times were 5, 15 and 30 minutes then 1, 2, 4, 6, 8, 12 and 24 hours. Following collection, blood samples were centrifuged and the plasma fraction analysed for concentration of test compound by LCMS.
# [3] = in vivo; cited from earlier work; remark: listed apart in the source
# Sequence of Human KLK1 (P06870 25-262): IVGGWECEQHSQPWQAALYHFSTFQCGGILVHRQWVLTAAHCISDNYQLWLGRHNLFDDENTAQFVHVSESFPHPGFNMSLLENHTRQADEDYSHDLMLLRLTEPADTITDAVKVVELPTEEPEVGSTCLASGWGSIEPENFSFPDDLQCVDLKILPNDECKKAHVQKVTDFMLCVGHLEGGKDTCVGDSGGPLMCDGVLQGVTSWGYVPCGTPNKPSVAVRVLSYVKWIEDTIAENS
molecule,measurement,setting,value
N=C(N)c1ccc(CNC(=O)c2cnn(Cc3ccccc3)c2)cc1 [ASP-440],effect on retinal vascular permeability and retinal blood flow abnormalities,diabetic rats,ameliorated both retinal vascular permeability and retinal blood flow abnormalities
same,oral availability,[1],poor oral availability
"Cc1cc(C(=O)NCc2ccc3c(N)nccc3c2)c(C)n1Cc1csc(-c2ccccc2)n1 [Example 1, 2,5-Dimethyl-1-(2-phenyl-thiazol-4-ylmethyl)-1H-pyrrole-3-carboxylic acid (1-amino-isoquinolin-6-ylmethyl)-amide]",IC50,Human KLK1,> 10 µM
same,IC50,plasmin,> 40000 nM
same,IC50,trypsin,> 40000 nM
same,IC50,Factor XIIa,> 10000 nM
same,IC50,Human plasma kallikrein,0.0547 µM
same,IC50,thrombin,> 40000 nM
"O=C(NCc1cccc2[nH]ncc12)c1cn(Cc2ccc(Cn3ccccc3=O)cc2)nc1C(F)(F)F [Example 126, 1-[4-(2-Oxo-2H-pyridin-1-ylmethyl)-benzyl]-3-trifluoromethyl-1H-pyrazole-4-carboxylic acid (1H-indazol-4-ylmethyl)-amide]",IC50,Human KLK1,> 10 µM
same,Cmax,[2],56 ng/mL
same,Tmax,[2],30 min
same,IC50,Factor XIIa,> 10000 nM
same,IC50,Human plasma kallikrein,0.0229 µM
Ecallantide,anaphylactic reactions,[3],anaphylactic reactions
